Laboratory results taken from PubChem BioAssay (NCI).
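All cell lines were grown in 96-well plates and treated with compound for 48 hours. Definition used: TGI = concentration required for complete inhibition of growth.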

Test system: ACHN renal
Assay: growth of human tumour cells (NCI), 48 h

| Structure (SMILES) | TGI [µM] |
| --- | --- |
| CCCCCCCCCCCCCCCCCc1cccc(OCOCCOC)c1CO | > 100 |
| O=C1CCC(c2ccccc2)C(O)(C(=O)O)C1 (stereo unspecified) | > 100 |
| CC(=O)O[C@@H]1C=C(C)[C@H](CBr)O[C@@]2(C)CC[C@H](Br)C(C)(C)[C@H]12 | > 100 |
| COc1ccc2c(c1)OCc1c-2oc2ccccc2c1=O | > 100 |
| CCCCn1c(C)c(C(=O)OCC)c2cc(OCc3ccc(C(=O)Nn4c(C)ccc4C)cc3)c(Br)cc21 | > 100 |
| N#CCCN(CCC#N)c1ccc(C(=O)NN)cc1 | > 100 |
| CC1=CC(=O)NP(=O)(Oc2ccc(C)cc2)N1 (stereo unspecified) | > 100 |
| S=C(/N=c1/sc(Nc2ccccc2)nc2sc3c(c12)CCCC3)Nc1ccccc1 | > 62.5 |
| CC(=O)OC1CC2OC(Cc3ccccc32)O1 (stereo unspecified) | > 100 |
| C/C(=N\NC(=S)N1CC2CCC(CC2)C1)c1ccncn1 | 3.28 |
| COC(=O)CCC(=O)NC1c2cccc3cccc(c23)Cn2c(=O)n(C)c(=O)n21 (stereo unspecified) | > 100 |
| CCOC(=O)CC(NC(=O)c1nc[nH]c1[N+](=O)[O-])C(=O)OCC (stereo unspecified) | > 100 |
| N#[O+].O=S(=O)([O-])[O-].[NH2-].[NH2-].[NH2-].[NH2-].[NH2-].[Ru+5] | > 100 |

Test system: UO-31 renal
Assay: growth of human tumour cells (NCI), 48 h

| Structure (SMILES) | TGI [µM] |
| --- | --- |
| O=C1c2ccccc2S[C@@H](O)[C@@H]2CCCN12 | > 100 |
| Cc1cc(=O)[nH]c(NNC(C#N)c2ccc(O)cc2)n1 (stereo unspecified) | > 100 |
| O=C(CSc1nnc(Cc2ccccc2)o1)Nc1cccc([N+](=O)[O-])c1 | > 100 |
| O=C(CC(=O)n1nc(-c2ccccc2)c(N=Nc2ccc(Cl)cc2)c1-c1ccccc1)Nc1cccc(Cl)c1 | > 100 |
| O=c1[nH]nc(-c2cccc(Br)c2)[nH]1 | > 100 |
| COc1cccc(C2c3cc4c(cc3OC(N3CCCC3)C2C)OCO4)c1 (stereo unspecified) | 41.4 |
| O=P(c1ccccc1)(c1ccccc1)C(NCc1ccccc1)c1ccc(F)cc1 (stereo unspecified) | 25.3 |
| COc1cc2c(c(OC)c1OC)-c1ccc(SC)c(=O)cc1C(CC(=O)Oc1ccc([N+](=O)[O-])cc1)C2 (stereo unspecified) | > 100 |
| CC(=O)NC(CCCN)C(=O)NCc1ccccc1 (stereo unspecified) | > 100 |
| Cc1cc(O)c(/C=N/C(=S)NCCc2ccccc2)c(=O)o1 | > 100 |
| Cc1nnc([C@@]2(C)CC[C@H]3[C@@H](CC=C4C[C@@H](O)CC[C@@]43C)[C@@H]2CC#N)o1 | > 100 |
| Cc1ccccc1Nc1cn(COCc2ccccc2)c(=O)[nH]c1=O | > 100 |
| CO/N=C(\C(=O)Nc1cncs1)c1csc(NC(c2ccccc2)(c2ccccc2)c2ccccc2)n1 | > 10 |
| Cc1oc2nc(N(C)C)nc(Cl)c2c1C | > 100 |
| Cn1c(=O)c2c(nc(NCCCCl)n2CC(=O)NCCCCl)n(C)c1=O | > 100 |
| CCCCCCCCCCCCCCCCCc1cccc(OCOCCOC)c1CO | > 100 |
| O=C1CCC(c2ccccc2)C(O)(C(=O)O)C1 (stereo unspecified) | > 100 |
| CC(=O)O[C@@H]1C=C(C)[C@H](CBr)O[C@@]2(C)CC[C@H](Br)C(C)(C)[C@H]12 | > 100 |
| COc1ccc2c(c1)OCc1c-2oc2ccccc2c1=O | > 100 |
| N#CCCN(CCC#N)c1ccc(C(=O)NN)cc1 | > 100 |
| CC1=CC(=O)NP(=O)(Oc2ccc(C)cc2)N1 (stereo unspecified) | > 100 |
| S=C(/N=c1/sc(Nc2ccccc2)nc2sc3c(c12)CCCC3)Nc1ccccc1 | > 62.5 |
| CC(=O)OC1CC2OC(Cc3ccccc32)O1 (stereo unspecified) | > 100 |
| C/C(=N\NC(=S)N1CC2CCC(CC2)C1)c1ccncn1 | 0.911 |
| COC(=O)CCC(=O)NC1c2cccc3cccc(c23)Cn2c(=O)n(C)c(=O)n21 (stereo unspecified) | > 100 |
| CCOC(=O)CC(NC(=O)c1nc[nH]c1[N+](=O)[O-])C(=O)OCC (stereo unspecified) | > 100 |

Test system: MCF7 breast
Assay: growth of human tumour cells (NCI), 48 h

| Structure (SMILES) | TGI [µM] |
| --- | --- |
| O=c1[nH]nc(-c2cccc(Br)c2)[nH]1 | > 100 |
| COc1cccc(C2c3cc4c(cc3OC(N3CCCC3)C2C)OCO4)c1 (stereo unspecified) | 51.5 |
| Cc1cc(O)c(/C=N/C(=S)NCCc2ccccc2)c(=O)o1 | > 100 |
| Cc1nnc([C@@]2(C)CC[C@H]3[C@@H](CC=C4C[C@@H](O)CC[C@@]43C)[C@@H]2CC#N)o1 | > 100 |
| Cc1ccccc1Nc1cn(COCc2ccccc2)c(=O)[nH]c1=O | > 100 |
| COc1ccc(-c2c(C(C)=O)c(-c3ccccc3)n(C3OC(COC(C)=O)C(OC(C)=O)C(OC(C)=O)C3OC(C)=O)c(=S)c2C#N)cc1 (stereo unspecified) | > 100 |
| CO/N=C(\C(=O)Nc1cncs1)c1csc(NC(c2ccccc2)(c2ccccc2)c2ccccc2)n1 | > 10 |
| CCCCCCCCCCCCCCCCCc1cccc(OCOCCOC)c1CO | > 100 |
| CC(=O)O[C@@H]1C=C(C)[C@H](CBr)O[C@@]2(C)CC[C@H](Br)C(C)(C)[C@H]12 | > 100 |
| COc1ccc2c(c1)OCc1c-2oc2ccccc2c1=O | > 100 |
| CCCCn1c(C)c(C(=O)OCC)c2cc(OCc3ccc(C(=O)Nn4c(C)ccc4C)cc3)c(Br)cc21 | > 100 |
| S=C(/N=c1/sc(Nc2ccccc2)nc2sc3c(c12)CCCC3)Nc1ccccc1 | > 62.5 |
| C/C(=N\NC(=S)N1CC2CCC(CC2)C1)c1ccncn1 | 7.61 |
| COC(=O)CCC(=O)NC1c2cccc3cccc(c23)Cn2c(=O)n(C)c(=O)n21 (stereo unspecified) | > 100 |

Test system: NCI/ADR-RES ovarian
Assay: growth of human tumour cells (NCI), 48 h

| Structure (SMILES) | TGI [µM] |
| --- | --- |
| O=c1[nH]nc(-c2cccc(Br)c2)[nH]1 | > 100 |
| COc1cccc(C2c3cc4c(cc3OC(N3CCCC3)C2C)OCO4)c1 (stereo unspecified) | 33.5 |
| O=P(c1ccccc1)(c1ccccc1)C(NCc1ccccc1)c1ccc(F)cc1 (stereo unspecified) | 41.2 |
| Cc1cc(O)c(/C=N/C(=S)NCCc2ccccc2)c(=O)o1 | > 100 |
| Cc1nnc([C@@]2(C)CC[C@H]3[C@@H](CC=C4C[C@@H](O)CC[C@@]43C)[C@@H]2CC#N)o1 | > 100 |
| Cc1ccccc1Nc1cn(COCc2ccccc2)c(=O)[nH]c1=O | > 100 |
| COc1ccc(-c2c(C(C)=O)c(-c3ccccc3)n(C3OC(COC(C)=O)C(OC(C)=O)C(OC(C)=O)C3OC(C)=O)c(=S)c2C#N)cc1 (stereo unspecified) | > 100 |
| CO/N=C(\C(=O)Nc1cncs1)c1csc(NC(c2ccccc2)(c2ccccc2)c2ccccc2)n1 | > 10 |
| Cc1oc2nc(N(C)C)nc(Cl)c2c1C | > 100 |
| Cn1c(=O)c2c(nc(NCCCCl)n2CC(=O)NCCCCl)n(C)c1=O | > 100 |
| CCCCCCCCCCCCCCCCCc1cccc(OCOCCOC)c1CO | > 100 |
| CC(=O)O[C@@H]1C=C(C)[C@H](CBr)O[C@@]2(C)CC[C@H](Br)C(C)(C)[C@H]12 | > 100 |
| COc1ccc2c(c1)OCc1c-2oc2ccccc2c1=O | > 100 |
| CCCCn1c(C)c(C(=O)OCC)c2cc(OCc3ccc(C(=O)Nn4c(C)ccc4C)cc3)c(Br)cc21 | > 100 |
| COC(=O)CCC(=O)NC1c2cccc3cccc(c23)Cn2c(=O)n(C)c(=O)n21 (stereo unspecified) | > 100 |

Test system: SK-OV-3 ovarian
Assay: growth of human tumour cells (NCI), 48 h

| Structure (SMILES) | TGI [µM] |
| --- | --- |
| O=C1c2ccccc2S[C@@H](O)[C@@H]2CCCN12 | > 100 |
| Cc1cc(=O)[nH]c(NNC(C#N)c2ccc(O)cc2)n1 (stereo unspecified) | > 100 |
| O=C(CSc1nnc(Cc2ccccc2)o1)Nc1cccc([N+](=O)[O-])c1 | > 100 |
| CN(C)/N=C(\CCN1CCCC1)CC(c1ccccc1)c1c(O)c2ccccc2oc1=O (stereo unspecified) | > 100 |
| O=P(c1ccccc1)(c1ccccc1)C(NCc1ccccc1)c1ccc(F)cc1 (stereo unspecified) | 34.1 |
| COc1cc2c(c(OC)c1OC)-c1ccc(SC)c(=O)cc1C(CC(=O)Oc1ccc([N+](=O)[O-])cc1)C2 (stereo unspecified) | > 100 |
| CC(=O)NC(CCCN)C(=O)NCc1ccccc1 (stereo unspecified) | > 100 |
| Cc1cc(O)c(/C=N/C(=S)NCCc2ccccc2)c(=O)o1 | > 100 |
| Cc1nnc([C@@]2(C)CC[C@H]3[C@@H](CC=C4C[C@@H](O)CC[C@@]43C)[C@@H]2CC#N)o1 | > 100 |
| COc1ccc(-c2c(C(C)=O)c(-c3ccccc3)n(C3OC(COC(C)=O)C(OC(C)=O)C(OC(C)=O)C3OC(C)=O)c(=S)c2C#N)cc1 (stereo unspecified) | > 100 |
| CO/N=C(\C(=O)Nc1cncs1)c1csc(NC(c2ccccc2)(c2ccccc2)c2ccccc2)n1 | > 10 |
| Cn1c(=O)c2c(nc(NCCCCl)n2CC(=O)NCCCCl)n(C)c1=O | > 100 |
| CCCCCCCCCCCCCCCCCc1cccc(OCOCCOC)c1CO | > 100 |
| O=C1CCC(c2ccccc2)C(O)(C(=O)O)C1 (stereo unspecified) | > 100 |
| CC(=O)O[C@@H]1C=C(C)[C@H](CBr)O[C@@]2(C)CC[C@H](Br)C(C)(C)[C@H]12 | > 100 |
| COc1ccc2c(c1)OCc1c-2oc2ccccc2c1=O | > 100 |
| CCCCn1c(C)c(C(=O)OCC)c2cc(OCc3ccc(C(=O)Nn4c(C)ccc4C)cc3)c(Br)cc21 | > 100 |
| N#CCCN(CCC#N)c1ccc(C(=O)NN)cc1 | > 100 |
| CC1=CC(=O)NP(=O)(Oc2ccc(C)cc2)N1 (stereo unspecified) | > 100 |
| S=C(/N=c1/sc(Nc2ccccc2)nc2sc3c(c12)CCCC3)Nc1ccccc1 | > 62.5 |
| CC(=O)OC1CC2OC(Cc3ccccc32)O1 (stereo unspecified) | > 100 |
| C/C(=N\NC(=S)N1CC2CCC(CC2)C1)c1ccncn1 | 1.6 |
| COC(=O)CCC(=O)NC1c2cccc3cccc(c23)Cn2c(=O)n(C)c(=O)n21 (stereo unspecified) | > 100 |
| CCOC(=O)CC(NC(=O)c1nc[nH]c1[N+](=O)[O-])C(=O)OCC (stereo unspecified) | > 100 |
| N#[O+].O=S(=O)([O-])[O-].[NH2-].[NH2-].[NH2-].[NH2-].[NH2-].[Ru+5] | > 100 |

Test system: 786-0 renal
Assay: growth of human tumour cells (NCI), 48 h

| Structure (SMILES) | TGI [µM] |
| --- | --- |
| O=C1c2ccccc2S[C@@H](O)[C@@H]2CCCN12 | > 100 |
| Cc1cc(=O)[nH]c(NNC(C#N)c2ccc(O)cc2)n1 (stereo unspecified) | > 100 |
| O=C(CSc1nnc(Cc2ccccc2)o1)Nc1cccc([N+](=O)[O-])c1 | > 100 |
| O=C(CC(=O)n1nc(-c2ccccc2)c(N=Nc2ccc(Cl)cc2)c1-c1ccccc1)Nc1cccc(Cl)c1 | > 100 |
| O=c1[nH]nc(-c2cccc(Br)c2)[nH]1 | > 100 |
| COc1cccc(C2c3cc4c(cc3OC(N3CCCC3)C2C)OCO4)c1 (stereo unspecified) | 33.7 |
| CN(C)/N=C(\CCN1CCCC1)CC(c1ccccc1)c1c(O)c2ccccc2oc1=O (stereo unspecified) | > 100 |
| O=P(c1ccccc1)(c1ccccc1)C(NCc1ccccc1)c1ccc(F)cc1 (stereo unspecified) | 34.8 |
| COc1cc2c(c(OC)c1OC)-c1ccc(SC)c(=O)cc1C(CC(=O)Oc1ccc([N+](=O)[O-])cc1)C2 (stereo unspecified) | > 37.2 |
| CC(=O)NC(CCCN)C(=O)NCc1ccccc1 (stereo unspecified) | > 100 |
| Cc1cc(O)c(/C=N/C(=S)NCCc2ccccc2)c(=O)o1 | > 100 |
| Cc1nnc([C@@]2(C)CC[C@H]3[C@@H](CC=C4C[C@@H](O)CC[C@@]43C)[C@@H]2CC#N)o1 | > 100 |
| Cc1ccccc1Nc1cn(COCc2ccccc2)c(=O)[nH]c1=O | > 100 |
| COc1ccc(-c2c(C(C)=O)c(-c3ccccc3)n(C3OC(COC(C)=O)C(OC(C)=O)C(OC(C)=O)C3OC(C)=O)c(=S)c2C#N)cc1 (stereo unspecified) | > 100 |
| CO/N=C(\C(=O)Nc1cncs1)c1csc(NC(c2ccccc2)(c2ccccc2)c2ccccc2)n1 | > 10 |
| Cc1oc2nc(N(C)C)nc(Cl)c2c1C | > 100 |
| Cn1c(=O)c2c(nc(NCCCCl)n2CC(=O)NCCCCl)n(C)c1=O | > 100 |
| CCCCCCCCCCCCCCCCCc1cccc(OCOCCOC)c1CO | > 100 |
